In PMC7229567, “Comparative Pharmacokinetics of Geniposidic Acid, Genipin-1-β-Gentiobioside, Geniposide, Genipin, and Crocetin in Rats after Oral Administration of Crude Gardeniae Fructus and Its Three Processed Products Using LC-MS/MS” (Evidence-based Complementary and Alternative Medicine : eCAM, 2020):
Where two headings read alike, the source gives them in different places. Values belong to the compound of their own block, whether it stands above or below them.

Assays:
[1] = Stability of the analytes in rat plasma QC samples under storage conditions; assay type: in vitro ADME; conditions: for Freeze-thaw cycles Remain: three freeze-thaw cycles
Description: Quality control (QC) samples containing geniposidic acid, geniposide, genipin-1-β-gentiobioside, genipin, and crocetin were prepared at LLOQ (10 ng/mL), low (30 ng/mL), medium (300 ng/mL), and high concentrations (3000 ng/mL), spiking with appropriate standard solutions with blank plasma to establish calibration curve and method validation. The samples were prepared by the same procedures for plasma samples as described below. The stability of 5 components in the plasma was obtained by evaluating QC samples at four concentration levels with three replicates in different conditions. The QC samples were kept at room temperature for 12 h to determine the short-term stability. Freeze-thaws stability was tested after three freeze-thaw (−80°C at room temperature) on three consecutive days. Long-term stability was tested by evaluating QC samples stored at −80°C for one month. The stability of the five components in rat plasma was determined by evaluating QC samples stored at different temperature and timing conditions. All the components were stable in the autosampler for 24 h, after three freeze-thaw cycles and at a month at −80°C.

[2] = Pharmacokinetics in rat plasma after oral administration of CGF, SGF, GCGF and GIGF extracts (LC-MS/MS); conditions: for Cmax / half-life / Tmax: male, Sprague-Dawley, rat, plasma, po, 0.75 mL/kg; for Cmax: C max; for Cmax / Tmax / C max / T 1/2 / T max / AUC(0–t24) ratio relative to CGF: rat plasma; for Cmax / half-life / Tmax / C max / T 1/2 / T max: n = 6, mean ± SD; for half-life: T 1/2, rat plasma; for Tmax: T max; for AUC(0–t24) ratio relative to CGF: oral
Description: (§1) The LC-ESI-MS/MS system is composed of an Agilent 1200 series LC system (Agilent Technologies, USA) including a binary pump, a vacuum degasser unit, an autosampler, and an API 3200 triple quadrupole mass Spectrometer with an ESI source (Concord, Ontario, Canada). Data was acquired by Analyst 1.4.2 software (AB MDS Sciex).
(§2) The Agilent Eclipse plus C18 (4.6 × 100 mm, 1.8 μm) column with a guard column was used to separate multiple ingredients. The mobile phases were methanol (A) and water (B) with a gradient elution of 3–36% A at 0–3 min, 36–36% A at 3–15 min, 36–97% A at 15–16 min, and 97–97% A at 16–26 min, then back from 97% to 3% balanced for 10 min. The flow rate was set at 0.3 mL/min and the column temperature was set at 30°C. The injection volume was 5 μL.
(§3) The detection was operated in Multiple Reaction Monitoring (MRM) mode. The source parameters were as follows: curtain gas, collision gas, ion spray voltage, temperature, ion source gas 1, and ion source gas 2 were set at 20 psi, 5 psi, 5500 V, 450°C, 40 psi, and 40 psi, respectively. Nitrogen was the only gas used in the experiment.
(§4) A total of 24 male Sprague-Dawley rats (weight: 220–250 g) were obtained from animal center of Tianjin University of Traditional Chinese Medicine (Tianjin, China). Those rats were randomly divided into four groups (CGF, SGF, GCGF, and GIGF groups) and were housed in an environmentally controlled room (temperature 20–25°C, humidity 60 ± 5%). The rats were allowed free accessibility to food and water in the first week. They were fasted for 12 h before the experiment with water taken freely. The animal experiments were according to the Guidelines for the Care and Use of Laboratory Animals and were approved by the Animal Ethics Committee of Tianjin University of Traditional Chinese Medicine. The rats were randomly divided into four groups. Six rats in each group were separately given single dose of 0.75 mL/kg (0.9 g·kg herbal medicine) extract solution of four kinds of GFs vial oral administration. Blood samples (about 300 μL) were collected at 0, 0.08, 0.25, 0.5, 1, 2, 4, 6, 8, 10, 12, 14, and 24 h. The blood samples were collected in heparinized tubes and immediately centrifuged at 6000 rpm for 10 min at 4°C. The plasma samples were stored at −80°C until analysis.
(§5) The plasma sample (100 μL) was spiked with 20 μL IS working solution and 10 μL formic acid in an Eppendorf tube. Samples were vortex for 30 s, and then 1 mL acetonitrile was added to precipitate protein. Then samples were vortexed for 2 min and the tubes were centrifuged at 14000 rpm for 10 min. The upper organic phase was transferred into a new tube and evaporated to dryness under a flow of nitrogen gas. The residue was reconstituted with 50% methanol 100 μL. After centrifuging at 14000 rpm for 10 min, the supernatant was transferred into an autosampler vial and a volume of 5 μL was injected into the HPLC-ESI-MS/MS for analysis.
(§6) The pharmacokinetic parameters were calculated using a Drug and Statistics 1.0 (DAS 1.0) software (Medical College of Wannan, China). The pharmacokinetic parameters included time of maximum concentration (Tmax), maximum plasma concentration (Cmax), elimination half-life (T1/2), and area under concentrations curve (AUC0–t and AUC0–∞). All values were expressed as mean ± SD. A paired t test was used to test the difference among these groups.

[3] = in vivo, po
Description: as §1, §2, §3, §4, §5, §6

[4] = single oral dose of CGF extract 0.75 mL/kg
[5] = single oral dose of GCGF extract 0.75 mL/kg
[6] = single oral dose of GIGF extract 0.75 mL/kg
[7] = single oral dose of SGF extract 0.75 mL/kg

SMILES: CC(/C=C/C=C(\C)C(=O)O)=C\C=C\C=C(C)\C=C\C=C(/C)C(=O)O [Crocetin]
At −80°C for a month Remain ([1]; 10 ng/mL): 98.4%
Autosampler for 24 h Remain ([1]; 10 ng/mL): 97.9%
Freeze-thaw cycles Remain ([1]; 10 ng/mL): 102%
At −80°C for a month Remain ([1]; 30 ng/mL): 101%
Autosampler for 24 h Remain ([1]; 30 ng/mL): 99.9%
Freeze-thaw cycles Remain ([1]; 30 ng/mL): 95.3%
At −80°C for a month Remain ([1]; 300 ng/mL): 105%
Autosampler for 24 h Remain ([1]; 300 ng/mL): 96.3%
Freeze-thaw cycles Remain ([1]; 300 ng/mL): 98.6%
At −80°C for a month Remain ([1]; 3000 ng/mL): 103%
Autosampler for 24 h Remain ([1]; 3000 ng/mL): 98.9%
Freeze-thaw cycles Remain ([1]; 3000 ng/mL): 106%
Cmax [2, 4]: 165 ± 52.9 ng/mL
Cmax [2, 5]: 163 ± 76.4 ng/mL
Cmax [2, 6]: 91.2 ± 35.6 ng/mL
Cmax [2, 7]: 153 ± 81.9 ng/mL
half-life [2, 4]: 41.6 ± 57.6 h
half-life [2, 5]: 12.8 ± 6.64 h
half-life [2, 6]: 31.8 ± 29.3 h
half-life [2, 7]: 56.2 ± 43 h
Tmax [2, 4]: 7.3 ± 3.93 h
Tmax [2, 5]: 6.43 ± 5.02 h
Tmax [2, 6]: 1.29 ± 2.31 h
Tmax [2, 7]: 6.61 ± 4.05 h

SMILES: COC(=O)C1=CO[C@@H](O[C@@H]2O[C@H](CO[C@@H]3O[C@H](CO)[C@@H](O)[C@H](O)[C@H]3O)[C@@H](O)[C@H](O)[C@H]2O)[C@@H]2C(CO)=CC[C@H]12 [Genipin-1-β-gentiobioside]
At −80°C for a month Remain ([1]; 10 ng/mL): 95.8%
Autosampler for 24 h Remain ([1]; 10 ng/mL): 99.3%
Freeze-thaw cycles Remain ([1]; 10 ng/mL): 104%
At −80°C for a month Remain ([1]; 30 ng/mL): 96.3%
Autosampler for 24 h Remain ([1]; 30 ng/mL): 100%
Freeze-thaw cycles Remain ([1]; 30 ng/mL): 105%
At −80°C for a month Remain ([1]; 300 ng/mL): 95.1%
Autosampler for 24 h Remain ([1]; 300 ng/mL): 101%
Freeze-thaw cycles Remain ([1]; 300 ng/mL): 101%
At −80°C for a month Remain ([1]; 3000 ng/mL): 95.1%
Autosampler for 24 h Remain ([1]; 3000 ng/mL): 90.7%
Freeze-thaw cycles Remain ([1]; 3000 ng/mL): 103%
C max [2, 4]: 149.90 ± 132.07 ng/mL
T 1/2 [2, 4]: 0.72 ± 0.25 h
T max [2, 4]: 0.55 ± 0.33 h
C max [2, 5]: 102.92 ± 58.15 ng/mL
T 1/2 [2, 5]: 0.78 ± 0.32 h
T max [2, 5]: 0.78 ± 0.20 h
C max [2, 6]: 62.94 ± 16.81 ng/mL
T 1/2 [2, 6]: 0.91 ± 0.36 h
T max [2, 6]: 1.05 ± 0.37^∗# h
C max [2, 7]: 79.08 ± 39.47 ng/mL
T 1/2 [2, 7]: 0.61 ± 0.18 h
T max [2, 7]: 0.61 ± 0.31 h

SMILES: COC(=O)C1=CO[C@@H](O[C@@H]2O[C@H](CO)[C@@H](O)[C@H](O)[C@H]2O)[C@@H]2C(CO)=CC[C@H]12 [Geniposide]
At −80°C for a month Remain ([1]; 10 ng/mL): 99.2%
Autosampler for 24 h Remain ([1]; 10 ng/mL): 102%
Freeze-thaw cycles Remain ([1]; 10 ng/mL): 97.5%
At −80°C for a month Remain ([1]; 30 ng/mL): 98.4%
Autosampler for 24 h Remain ([1]; 30 ng/mL): 95.1%
Freeze-thaw cycles Remain ([1]; 30 ng/mL): 92.8%
At −80°C for a month Remain ([1]; 300 ng/mL): 94.8%
Autosampler for 24 h Remain ([1]; 300 ng/mL): 96.3%
Freeze-thaw cycles Remain ([1]; 300 ng/mL): 93.1%
At −80°C for a month Remain ([1]; 3000 ng/mL): 92.8%
Autosampler for 24 h Remain ([1]; 3000 ng/mL): 91.6%
Freeze-thaw cycles Remain ([1]; 3000 ng/mL): 95.0%
Cmax [2, 4]: 1070 ± 598 ng/mL
Cmax [2, 5]: 581 ± 241 ng/mL
Cmax [2, 6]: 212 ± 109 ng/mL
Cmax [2, 7]: 455 ± 160 ng/mL
half-life [2, 4]: 3.21 ± 2.31 h
half-life [2, 6]: 1.08 ± 0.45 h
half-life [2, 7]: 1.61 ± 0.63 h
Tmax [2, 4]: 1.54 ± 1.3 h
Tmax [2, 5]: 0.86 ± 0.13 h
Tmax [2, 6]: 1.3 ± 0.48 h
Tmax [2, 7]: 0.89 ± 0.72 h
T 1/2 [2, 5]: 1.44 ± 0.53^∗ h

More lines, now with the values ahead:

At −80°C for a month Remain ([1]; 10 ng/mL): 108%
Autosampler for 24 h Remain ([1]; 10 ng/mL): 95.4%
At −80°C for a month Remain ([1]; 30 ng/mL): 103%
Autosampler for 24 h Remain ([1]; 30 ng/mL): 104%
Freeze-thaw cycles Remain ([1]; 30 ng/mL): 95.3%
At −80°C for a month Remain ([1]; 300 ng/mL): 105%
Autosampler for 24 h Remain ([1]; 300 ng/mL): 90.6%
Freeze-thaw cycles Remain ([1]; 300 ng/mL): 95.9%
At −80°C for a month Remain ([1]; 3000 ng/mL): 101%
Autosampler for 24 h Remain ([1]; 3000 ng/mL): 92.6%
Freeze-thaw cycles Remain ([1]; 3000 ng/mL): 100%
Detection in rat plasma ([2]; after administration of the GIGF extract, LLOQ 10 ng/mL): not detected
Cmax [2, 4]: 76.4 ± 40.9 ng/mL
Cmax [2, 5]: 68.5 ± 19.4 ng/mL
Cmax [2, 7]: 98 ± 41.8 ng/mL
half-life [2, 4]: 3.42 ± 1.94 h
half-life [2, 5]: 1.39 ± 0.98 h
half-life [2, 7]: 1.39 ± 0.88 h
Tmax [2, 4]: 1.11 ± 0.4 h
Tmax [2, 5]: 1.1 ± 0.52 h
Tmax [2, 7]: 1 ± 0.55 h
SMILES: COC(=O)C1=CO[C@@H](O)[C@@H]2C(CO)=CC[C@H]12 [Genipin]

At −80°C for a month Remain ([1]; 10 ng/mL): 107%
Autosampler for 24 h Remain ([1]; 10 ng/mL): 94.7%
Freeze-thaw cycles Remain ([1]; 10 ng/mL): 96.3%
At −80°C for a month Remain ([1]; 30 ng/mL): 98.0%
Autosampler for 24 h Remain ([1]; 30 ng/mL): 96.4%
Freeze-thaw cycles Remain ([1]; 30 ng/mL): 101%
At −80°C for a month Remain ([1]; 300 ng/mL): 106%
Autosampler for 24 h Remain ([1]; 300 ng/mL): 96.4%
Freeze-thaw cycles Remain ([1]; 300 ng/mL): 107%
At −80°C for a month Remain ([1]; 3000 ng/mL): 99.9%
Autosampler for 24 h Remain ([1]; 3000 ng/mL): 96.7%
Freeze-thaw cycles Remain ([1]; 3000 ng/mL): 108%
AUC(0–t24) ratio relative to CGF ([2]; GCGF vs CGF (CGF = 1)): 0.39
AUC(0–t24) ratio relative to CGF ([2]; GIGF vs CGF (CGF = 1)): 0.15
AUC(0–t24) ratio relative to CGF ([2]; SGF vs CGF (CGF = 1)): 0.22
Cmax [2, 4]: 1020 ± 450 ng/mL
Cmax [2, 5]: 670 ± 432 ng/mL
Cmax [2, 6]: 272 ± 164 ng/mL
Cmax [2, 7]: 398 ± 108 ng/mL
half-life [2, 4]: 2.52 ± 0.64 h
half-life [2, 5]: 1.72 ± 0.69 h
half-life [2, 6]: 1.5 ± 0.42 h
half-life [2, 7]: 2.93 ± 3.45 h
Tmax [2, 4]: 3.33 ± 1.63 h
Tmax [2, 5]: 3.33 ± 3.43 h
Tmax [2, 6]: 2.4 ± 1.26 h
Tmax [2, 7]: 1.78 ± 0.44 h
SMILES: O=C(O)C1=CO[C@@H](O[C@@H]2O[C@H](CO)[C@@H](O)[C@H](O)[C@H]2O)[C@@H]2C(CO)=CC[C@H]12 [Geniposidic acid]

Detection in rat plasma ([2]; plasma samples after oral administration of GF extracts): not detected
SMILES: CC(/C=C/C=C(\C)C(=O)O[C@@H]1O[C@H](CO)[C@@H](O)[C@H](O)[C@H]1O)=C\C=C\C=C(C)\C=C\C=C(/C)C(=O)O[C@@H]1O[C@H](CO[C@@H]2O[C@H](CO)[C@@H](O)[C@H](O)[C@H]2O)[C@@H](O)[C@H](O)[C@H]1O [crocin II]

Detection in rat plasma [3]: not detected
SMILES: CC(/C=C/C=C(\C)C(=O)O[C@@H]1O[C@H](CO[C@@H]2O[C@H](CO)[C@@H](O)[C@H](O)[C@H]2O)[C@@H](O)[C@H](O)[C@H]1O)=C\C=C\C=C(C)\C=C\C=C(/C)C(=O)O[C@@H]1O[C@H](CO[C@@H]2O[C@H](CO)[C@@H](O)[C@H](O)[C@H]2O)[C@@H](O)[C@H](O)[C@H]1O [crocin I]
